The values that follow come from patent publication US9440963B2, “Compositions, formulations and methods for treating ocular diseases” (Aerpio Therapeutics Inc., priority 2013, dated 2016).

Series [1] can be described thus: Room temperature aqueous solubility with solubilizing agents (Example 36). The class given is physicochemical. An excerpt: The room temperature aqueous solubility (mg/mL) of the a compound (4-{(S)-2-[(S)-2-methoxycarbonylamino)-3-phenylpropanamido]-2-[2-(thiophen-2-yl)thiazol-4-yl]ethyl}phenylsulfamic acid) in water, HPβCD, Poloxamer 407, and sulfobutylether-β-cyclodextrin, is provided in TABLE XXVII. Solubility in saline for the test compound is reduced presumably due to the common ion effect.
The solubility (mg/mL) of the test compound in mixtures of HPβCD and PEG400 is illustrated in TABLE XXVIII.

Series [2] deals with human subjects with visual acuity loss due to diabetic macular edema. The series can be described thus: Central foveal/retinal thickness by ocular coherence tomography in diabetic macular edema study (Example 35). The series is classed as in vivo. How it is done:
At any time during the course of the study, investigators could administer additional therapy consisting of intravitreal injection of an anti-VEGF agent, for example, ranibizumab, bevacizumab and/or aflibercept, if considered by the investigator to be medically necessary. Retinal thickness as measured by ocular coherence tomography and best corrected visual acuity as measured by a standard vision test (ETDRS) were assessed at regular intervals during the 28 day active treatment phase and through the 2 month post-treatment observation phase, (Screening, Day 1 [baseline], Day 7, Day 14, Day 21, Day 28, Day 42, Day 56 and Day 84). The main efficacy outcomes for the study were change in CRT and visual acuity over time with treatment. […] The mean change in Central Foveal Thickness was −289 μm, approximately double the reduction seen after ranibizumab injection in the study in FIG. 1. FIG. 5 represents the results of a single patient. The eye having the greater Central Foveal Thickness was chosen as the Study Eye. […] At week 3 (21 days, indicated by arrow) the fellow eye was treated with 0.5 mg of ranibizumab by injection. At week 6 (42 days, indicated by arrow) the treated eye was treated with 0.5 mg of ranibizumab. […] As a result, there was a pronounced reduction in CFT in the study eye from day 21 to day 28 (approximately 250 µm). […] At week 6, the study eye was treated with an intravitreal injection of 0.5 mg of ranibizumab. […] Compared to the study depicted in FIG. 1 wherein the average change in CFT at one month after ranibizumab injection was approximately […], the combination disclosed method provided substantially greater reductions at 2-4 weeks following ranibizumab injection. FIG. 6 represents the results of a single patient. The eye having the greater Central Foveal Thickness was chosen as the Study Eye. […] At week 4 (28 days, indicated by arrow) the fellow eye was rescued with 2 mg of aflibercept. […] At week 6 (42 days, indicated by arrow) the study eye was rescued with 2 mg of aflibercept. […] Unlike the results depicted for the ranibizumab protocol, there was no evidence of systemically delivered aflibercept to the Fellow Eye.

Setting [3] is: aqueous with cosolvent or surfactant or cyclodextrin, Solubility.

Converted amounts (≈) assume the structure as drawn. “And” between values parts separate entries of the source, which are not always exact repeats. Equal entries are not always repeated. Where two headings read alike, the source gives them in different places.

A word on the Solubility: it is how much of the substance goes into solution per volume. With `COC(=O)N[C@@H](Cc1ccccc1)C(=O)N[C@@H](Cc1ccc(NS(=O)(=O)O)cc1)c1nc(-c2cccs2)cs1`, the Solubility was 42 mg/mL (≈ 71.6 mM) in series [1] (setting [3]) and 38 mg/mL (≈ 64.8 mM) in series [1] (water, Solubility).

As to `CCc1csc([C@H](Cc2ccc(NS(=O)(=O)O)cc2)NC(=O)[C@H](Cc2ccccc2)NC(=O)OC)n1`, the Solubility in series [1] is 89 mg/mL (≈ 167 mM); in series [1] (setting [3]) it was 60 mg/mL (≈ 113 mM); in series [1] (water, Solubility), 45 mg/mL (≈ 84.5 mM).

`COC(=O)N[C@@H](Cc1ccccc1)C(=O)N[C@@H](Cc1ccc(NS(=O)(=O)O)cc1)c1csc(-c2cccs2)n1`: the “Central Foveal Reduction, single patient eye” value in series [2] (5 mg subcutaneously twice daily for 28 days, subsequently ranibizumab (0.3 or 0.5 mg) or aflibercept (2 mg) intravitreal, 14-28 days post ranibizumab or aflibercept, 7 eyes) was 50-100 μm and 150-200 μm and 200-250 μm and 300-350 μm and 350-400 μm and 450-500 μm. Besides, the “fall of Central Foveal Thickness of the fellow eye” value in series [2] (single patient (FIG. 5), 5 mg s.c. twice daily from day one, fellow eye 0.5 mg ranibizumab at week 3, by week 4 (28 days)) stood at 350 μm. For the same molecule, the “overall reduction in CFT of the study eye” value in series [2] (single patient (FIG. 5), by week 8, after 0.5 mg ranibizumab at week 6) is recorded as “approximately 500 μm”. Further, the “reduction in CFT in the study eye” value in series [2] (single patient (FIG. 5), from day 21 to day 28) is recorded as “approximately 250 µm”. In addition, in series [2] (single patient (FIG. 6)), the “reduction of CFT in the non-treated eye from onset of the study” value is given as approximately 280 μm and the “reduction of CFT in the study eye from onset of the study” value is listed as “approximately 300 μm”. Also, in series [2] (single patient (FIG. 6), 5 mg s.c. twice daily from day one, fellow eye rescued with 2 mg aflibercept at week 4), the “CFT reduction of the Fellow eye after rescue” value is given as “approximately 400 μm”. In series [2] (single patient (FIG. 6), study eye rescued with 2 mg aflibercept at week 6), the “CFT reduction of the Study eye after rescue” value is reported as “approximately 300 μm”. For the same molecule, the solubility in saline result in series [1] (room temperature, compared with water) is recorded as “reduced”.
